From patent publication US20090239861A1, “QUINAZOLINE DERIVATIVES AS ANTICANCER AGENTS” (priority 2005, published 2009)

Columns and labels:
EGFR tyrosine kinase = target: T1, EGFR tyrosine kinase (Homo sapiens, UniProt P00533); assay: Protein tyrosine kinase phosphorylation assay, Test (a), EGFR; format: biochemical; settings: ATP at Km concentration; read-out: IC50 Test (a): Inhibition of EGFR tyrosine kinase protein phosphorylation
T1 construct: Recombinant intracellular fragments of EGFR, erbB2 and erbB4; made in house; host or cells: baculovirus/Sf21 insect cells
Description: (§1) a) Protein Tyrosine Kinase phosphorylation Assays
(§2) This test measures the ability of a test compound to inhibit the phosphorylation of a tyrosine containing polypeptide substrate by EGFR, erbB2 and erbB4 tyrosine kinase enzyme.
(§3) Recombinant intracellular fragments of EGFR, erbB2 and erbB4 (accession numbers X00588, X03363 and L07868 respectively) were cloned and expressed in the baculovirus/Sf21 system. […]
(§4) Constitutive kinase activity of these recombinant proteins was determined by their ability to phosphorylate a synthetic peptide (made up of a random co-polymer of Glutamic Acid, Alanine and Tyrosine in the ratio of 6:3:1). […]
(§5) The immobilised phospho-peptide product of the reaction was detected by immunological methods. […] After further washing, HRP activity in each well of the plate was measured colorimetrically using 22′-Azino-di-[3-ethylbenzthiazoline sulfonate (6)]diammonium salt crystals (ABTS™ from Roche) as a substrate.
(§6) Quantification of colour development and thus enzyme activity was achieved by the measurement of absorbance at 405 nm on a Molecular Devices ThermoMax microplate reader. Kinase inhibition for a given compound was expressed as an IC50 value. […] The range of phosphorylation was calculated from the positive (vehicle plus ATP) and negative (vehicle minus ATP) control values.

erbB2 tyrosine kinase = target: T2, erbB2 tyrosine kinase (Homo sapiens, UniProt P04626); assay: Protein tyrosine kinase phosphorylation assay, Test (a), erbB2; format: biochemical; settings: ATP at Km concentration; read-out: IC50 Test (a): Inhibition of erbB2 tyrosine kinase protein phosphorylation
T2 construct: Recombinant intracellular fragments of EGFR, erbB2 and erbB4; made in house; host or cells: baculovirus/Sf21 insect cells
Description: as §1, §2, §3, §4, §5, §6

T2 sequence (P04626 676-1255 limits assumed): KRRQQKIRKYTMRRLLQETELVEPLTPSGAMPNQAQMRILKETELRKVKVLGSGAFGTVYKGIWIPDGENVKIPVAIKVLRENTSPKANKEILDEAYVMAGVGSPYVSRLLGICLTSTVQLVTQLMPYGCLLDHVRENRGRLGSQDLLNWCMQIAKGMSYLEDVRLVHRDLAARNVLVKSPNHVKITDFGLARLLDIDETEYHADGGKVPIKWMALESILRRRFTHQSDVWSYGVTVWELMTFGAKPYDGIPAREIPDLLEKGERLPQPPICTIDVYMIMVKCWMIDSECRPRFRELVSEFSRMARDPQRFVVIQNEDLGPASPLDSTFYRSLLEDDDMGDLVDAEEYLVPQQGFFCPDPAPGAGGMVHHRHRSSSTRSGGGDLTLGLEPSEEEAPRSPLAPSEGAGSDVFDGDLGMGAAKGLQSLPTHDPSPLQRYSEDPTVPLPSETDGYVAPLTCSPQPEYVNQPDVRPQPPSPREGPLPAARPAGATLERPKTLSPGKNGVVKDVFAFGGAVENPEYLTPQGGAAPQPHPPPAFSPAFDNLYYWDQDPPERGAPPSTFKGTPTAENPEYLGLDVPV
T1 sequence (P00533 669-1210 limits assumed): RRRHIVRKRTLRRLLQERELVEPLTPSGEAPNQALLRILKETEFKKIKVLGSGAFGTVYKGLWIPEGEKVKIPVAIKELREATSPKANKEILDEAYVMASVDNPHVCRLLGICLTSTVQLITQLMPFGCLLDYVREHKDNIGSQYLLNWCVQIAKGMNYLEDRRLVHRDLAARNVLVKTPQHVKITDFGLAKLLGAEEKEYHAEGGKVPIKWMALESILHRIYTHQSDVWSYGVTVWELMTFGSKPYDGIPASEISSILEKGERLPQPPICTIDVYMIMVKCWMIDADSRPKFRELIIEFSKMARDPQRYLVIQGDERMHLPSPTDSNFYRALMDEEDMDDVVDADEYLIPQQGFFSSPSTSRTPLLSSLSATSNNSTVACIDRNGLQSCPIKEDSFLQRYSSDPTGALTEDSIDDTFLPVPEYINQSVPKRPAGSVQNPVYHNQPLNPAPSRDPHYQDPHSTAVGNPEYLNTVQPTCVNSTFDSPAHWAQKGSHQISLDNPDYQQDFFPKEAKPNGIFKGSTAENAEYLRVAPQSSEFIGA

SMILES | IC50 (EGFR tyrosine kinase) [nM] | IC50 (erbB2 tyrosine kinase) [nM]
C[C@@H](Oc1cccc2ncnc(Nc3ccc4c(ccn4Cc4ccccn4)c3)c12)C(=O)N(C)C [Example 2, (2R)—N,N-Dimethyl-2-[(4-{[1-(pyridin-2-ylmethyl)-1H-indol-5-yl]amino}quinazolin-5-yl)oxy]propanamide] | 170 | 15
C[C@@H](Oc1cccc2ncnc(Nc3ccc4c(ccn4Cc4ccccn4)c3)c12)C(=O)N(C)CCO [Example 1, (2R)—N-(2-Hydroxyethyl)-N-methyl-2-[(4-{[1-(pyridin-2-ylmethyl)-1H-indol-5-yl]amino}quinazolin-5-yl)oxy]propanamide] | 370 | 11
